Entries after “also recorded” stand apart in the source; their conditions may differ.

In one assay the test system is immature/T1 B cells. The assay is described as follows: AID mRNA expression in cultured immature/T1 B cells (quantitative RT-PCR). It is filed as cell-based, mice. Here is the method:
Twenty-four hours after culture, B cells were harvested in TRIzol-LS reagent for AID mRNA quantification.
Expression of AID mRNA was determined by a quantitative RT-PCR^1. Briefly, sorted immature/T1 and mature follicular B cells were lysed in TRIzol LS before and after cultures. Total RNA was prepared from these cells using standard phenol/chloroform extraction method, and then cDNA was prepared using SuperScript III reverse transcriptase (Invitrogen) with oligo(dT)20 primers (Invitrogen). One-twentieth volume of cDNA samples were amplified in a primary PCR using Ramp-Taq DNA polymerase (Denville Scientific) with AID118 and AID119 primers^14. Primary PCR condition: initial incubation of 95° C. for 7 min followed by 15 cycles of amplification steps (95° C. for 30 s, 58° C. for 20 sec, and 72° C. for 45 sec.). Primary PCR products were then subjected to quantitative PCR using SYBR Green core reagents and AIDF2/AIDR2 primers^5.

In assay [1] the test system is 3H9 mice. From the text: Specific B-lineage developmental compartments were identified as described^1: CD43^+ B (pre-pro-B and pro-B; B220^lowCD93^+IgM^−IgD^−CD43^+), large pre-B (B220^lowCD93^+IgM^− IgD^−CD43^−FSC^high), small pre-B (B220^lowCD93^+IgM^−IgD^−CD43^−FSC^low), immature/T1 B (B220^lowCD93^+IgM^+IgD^+/−CD21^−CD23^−) and mature B (B220^hiCD93^−) cells in bone marrow, and splenic MF B (B220^hiCD93^−IgM^intIgD^hiCD21^intCD23^hi) cells of naïve mice, and germinal center B (GL-7^+B220^highFas^+IgD^−) cells in spleen of NP-CGG/alum immunized mice. Specific developmental compartments were designated for B6, and then identical gatings were used for all samples. Cells that take up propidium iodide were excluded from our analyses. Labeled cells were analyzed/sorted in a FACS Canto (BD Bioscience) or FACS Vantage with DIVA option (BD Bioscience). Flow cytometric data were analyzed with FlowJo software (Treestar Inc.).

For assay [2], the system named is 2F5 dKI mice. The assay is described as follows: Spleen B-cell numbers and GC responses in 2F5 dKI mice after chloroquine, MPER liposome immunization and anti-CD25 Ab (FIG. 20). It is filed as in vivo.
The subject of assay [3] is 3H9 mice. The assay is described as follows: DNA avidity index of single immature/T1 B-cell N-cultures from treated 3H9 mice (ELISA). It is filed as in vivo. The protocol:
Single immature/T1 B cells and MF B cells from unimmunized B6 and Myd88^−/− mice, and control- and chloroquine-treated 3H9 mice were expanded in the presence of NB-21.2D9 feeder cells (N-cultures). Briefly, single immature/T1 B cells and MF B cells were directly sorted into each well of 96-well plates and cultured in the presence of exogenous recombinant IL-4 (2 ng/ml, Peprotech) and CD154-/BAFF-/IL-21-expressing NB-21.2D9 cells in RPMI 1640 (Invitrogen) supplemented with 10% HyClone FBS (Thermo scientific), 2-mercaptoethanol (5.5×10^−5 M), penicillin (100 units/ml), streptomycin (100 μg/ml), HEPES (10 mM), sodiumpyruvate (1 mM), and MEM nonessential amino acid (1×; all Invitrogen). Two thirds of culture media were replaced with fresh media daily from day 2 to day 8. On days 9-10, culture supernatants were harvested for ELISA determinations.
Concentrations of total IgG in culture supernatants were determined by standard ELISA. Briefly, 96-well ELISA plates (Corning) were coated with anti-mouse Igκ Ab and anti-mouse Igλ Ab (2 μg/ml each; Southern Biotech) in carbonate buffer for overnight. After washing, plates were blocked with PBS containing 0.5% BSA for 1 h. Diluted samples (at 1:100 and 1:1,000 dilutions in PBS containing 0.5% BSA and 0.1% Tween-20) and serially diluted standard anti-DNA mAb (HYB331-01; Abcam) were then applied to the plates and incubated for overnight. After washing, HRP-conjugated anti-mouse IgG (Southern Biotech) was added to the plates and incubated for 2 h. The HRP-activity was visualized with TMB substrate reagents (Biolegend) and OD450-OD620 was measured by spectrophotometer (Bio-Rad).
Anti-DNA IgG was measured by ELISA^19. […] Bound IgG was detected by HRP-conjugated anti-mouse IgG and TMB substrates as described above. […]
DNA avidity index, [anti-DNA IgG]/[total IgG], represents proportion of DNA-binding IgG to total IgG in reference to the anti-DNA mAb. To compare DNA avidity indices of individual immature/T1 B cells from control- and chloroquine-treated 3H9 mice, culture supernatant samples that contain total IgG (range: 1-3 μg/ml) were analyzed. […]

For assay [4], the system named is 2F5 dKI mice. As to conditions: 2F5 dKI mice treated with chloroquine for one week.
The nature of assay [5]: Humoral responses after chloroquine treatment (FIG. 17). The assay is classed as in vivo.
Assay [6] deals with human CD40 expressing HEK blue cells. The assay is described as follows: HEK-Blue CD40L cells SEAP reporter assay of CD40L bioactivity. As to conditions: liposome-conjugated vs non-conjugated. It is filed as cell-based. From the text:
HEK-Blue CD40L cells (Invivogen) were used to measure the bioactivity of CD40L through the secretion of embryonic alkaline phosphatase (SEAP) upon NF-κB activation following CD40 stimulation.

The mark [7] stands for this setting: chloroquine-treated vs control 3H9 mice.

With `CCCCO` [n-butanol], the “AID expression in immature/T1 B cells stimulated with CpG” value in the assay with immature/T1 B cells (addition of n-butanol (0.1, 0.3, 1.0%)) is “did not significantly change”. Also, the “synergistic effects of CpG and anti-μ co-stimulation on AID expression in immature/T1 B cells” value with immature/T1 B cells (n-butanol at 1.0%) is recorded as “completely abrogated”; in the assay on immature/T1 B cells (n-butanol, dose-dependent), “suppressed”.
With `CCN(CC)CCCC(C)Nc1ccnc2cc(Cl)ccc12` (stereo not shown) [chloroquine], in the assay on 3H9 mice [1] (3H9 mice, multiple i.p. injections of chloroquine for up to 8 days, bone marrow), the “numbers of large- and small pre-B cells” value was “decreased”. For the same molecule, in the assay on 3H9 mice [1] (mice treated with chloroquine), the “central B-cell tolerance” value is “relaxed”. Moreover, in the assay with immature/T1 B cells (in the presence of 2.0 μg/ml of chloroquine, 24 h culture), the “AID expression in immature/T1 B cells elevated by CpG or CpG+anti-μ stimulation” value was “abrogated”. The “synergistic AID up-regulation” value with immature/T1 B cells (in vitro) is “blocked”. In addition, the “absolute cell numbers of splenic transitional-1 (T1) and T2” value in the assay with 2F5 dKI mice [2] (consecutive injections with chloroquine and MPER liposome, 14 days after last chloroquine injection, 12 days after immunization) is “increased”. Further, the “tolerizing deletion of 2F5 dKI B cells” value in the assay with 2F5 dKI mice [2] (injections of chloroquine) was “release”. Further, in the assay with 2F5 dKI mice [2] (vs controls (PBS+control IgG), after MPER liposome immunization), the GC responses result is recorded as “abolished”. In the assay with 3H9 mice [3] (DNA avidity index 0.178 cut-off (average of control 3H9), chloroquine-treated 3H9 mice), the “frequency of immature/T1 B cells with higher DNA avidity” value is given as “increased”. Moreover, in the assay with 3H9 mice [3] (setting [7]), the “average anti-DNA avidity indices of individual immature/T1 B cells” value is “significantly higher; also recorded: more avidly” and the “distribution of anti-DNA avidity indices” value is “shifted toward higher avidity cohorts”. In the assay on 2F5 dKI mice [4], the “splenic mature B-cell compartments” value is “increases”. Also, the “duration of suppression of humoral responses” value in assay [5] is less than 1 week.

B1: CD40L: CD40 ligand conjugated to liposomes (protein, UniProt P29965 113-261, looked up)
CD40 ligand, soluble form: MQKGDQNPQIAAHVISEASSKTTSVLQWAEKGYYTMSNNLVTLENGKQLTVKRQGLYYIYAQVTFCSNREASSQAPFIASLCLKSPGRFERILLRAANTHSSAKPCGQQSIHLGGVFELQPGASVFVNVTDPSQVSHGTGFTSFGLLKL
modifications: conjugated to liposomes
Regarding B1, the “effect of liposome conjugation on CD40 activation” value in assay [6] is recorded as “enhances”.
